From patent US5324725A, “7-fused 2-(piperazinoalkyl) indole derivatives, intermediates and compositions thereof” (Kali-Chemie Pharma GmbH, priority 1991, dated 1994) come the findings set out here.

This assay has as its target T1, 5-lipoxygenase (Mus musculus, UniProt P48999).
T1 construct: A cell suspension containing peritoneal cells of male mice 8-10 weeks old was obtained; endogenous in cells; host or cells: mouse peritoneal macrophages (male mice 8-10 weeks old), zymosan-stimulated
T1 sequence (P48999 1-674): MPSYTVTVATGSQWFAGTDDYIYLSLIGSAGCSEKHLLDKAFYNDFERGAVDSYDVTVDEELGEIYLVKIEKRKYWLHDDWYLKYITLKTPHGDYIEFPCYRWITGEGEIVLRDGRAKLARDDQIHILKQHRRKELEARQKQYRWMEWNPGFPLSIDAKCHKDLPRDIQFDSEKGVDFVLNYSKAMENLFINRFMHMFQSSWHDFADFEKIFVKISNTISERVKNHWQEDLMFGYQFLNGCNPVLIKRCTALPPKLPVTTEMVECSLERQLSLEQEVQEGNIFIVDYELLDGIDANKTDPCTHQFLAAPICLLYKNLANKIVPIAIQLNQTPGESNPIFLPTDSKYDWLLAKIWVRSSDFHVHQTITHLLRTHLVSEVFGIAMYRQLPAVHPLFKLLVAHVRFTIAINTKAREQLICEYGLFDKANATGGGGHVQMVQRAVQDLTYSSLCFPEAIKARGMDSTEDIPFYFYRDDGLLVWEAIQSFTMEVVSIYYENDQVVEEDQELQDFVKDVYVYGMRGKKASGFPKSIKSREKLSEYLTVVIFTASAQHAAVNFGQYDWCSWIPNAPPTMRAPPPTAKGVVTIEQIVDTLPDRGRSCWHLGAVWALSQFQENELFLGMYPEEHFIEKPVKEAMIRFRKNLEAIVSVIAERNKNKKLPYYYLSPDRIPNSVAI
The experiment in a line: 5-lipoxygenase inhibition: release of LTC4 from zymosan-stimulated mouse peritoneal macrophage cells. The format is cell-based. The note with it: 10^-5 mol/l, read-out: In vitro % inhibition effect on the release of LTC4. The source says: 5. In vitro determination of cyclooxygenase inhibition and 5-lipoxygenase inhibition.
After activation of the cell, arachidonic acid contained in cell membranes is metabolized in two ways. Leukotrienes, inter alia leukotriene C4, are formed under the action of the enzyme 5-lipoxygenase (5-LO), and prostanoids are formed under the action of the enzyme cyclooxygenase (CO). In in vitro systems, the metabolites are secreted from the cell.
To investigate the cyclooxygenase-inhibiting and the 5-lipoxygenase-inhibiting properties, the inhibitory effect of the test substances on the biosynthesis of the arachidonic acid derivatives leukotriene C4 (LTC4) and 6-ketoprostaglandin F1 α (6-keto-PGF1 α) is determined in vitro on mouse peritoneal macrophage cells. This was accomplished by determining the LTC4 and 6-keto-PGF1 α contents in a culture medium of mouse peritoneal macrophage cells by zymosan stimulation as described by Scott et al. (J. Exp. Med. 152 (1980), 324-335) and by Fradin et al. (Prostaglandins, 33 (1987), 579-589).
A cell suspension containing peritoneal cells of male mice 8-10 weeks old was obtained in a known manner. A commercially available cell culture solution (RPMI 1640 from Messrs. Gibco) was used to which heparin (I0 international units/ml) and antibiotics were added according to the recipe of Bonney et al. (Biochem. J. 176 (1978) 422-433). The cell suspension was adjusted to a cell concentration of 10^6 cells per ml and distributed uniformly on titer plates containing […] (wells). These were kept for two hours in a humidified incubator filled with air enriched with 7% CO2. Cells not adhering to the titer cell walls were then removed by washing. The remaining macrophage cells adhering to the walls were incubated for about 12 hours in a suspension medium to which 0.1% bovine serum albumin (BSA) were added. The suspension medium was then replaced by a Hanks balanced salt solution (HBSS) containing 10 mM Hepes (hydroxyethyl-piperazinoethanesulfonic acid), to which a 0.1% strength solution of the test substances in aqueous, 1% strength dimethylformamide or only the solvent had been added. After 15 minutes the arachidonic acid metabolism was stimulated by adding 10 particles of zymosan (=glycoproteinmixture, isolated from cell walls of beer yeast, Saccharomyces cerevisiae, manufactured by Sigma Chemical Co., Munich) per titer cell. After 2 hours, samples of each of the supernatant liquids were investigated for their 6-keto-PGF1 α and LTC4 contents by means of an enzyme immunoassay (EIA) carried out by the method of Pradelles et al. (Analytical Chem. 57 (1985), 1170-1173). The determination of LTC4 and the determination of 6-keto-PGF1 α were each carried out in comparison with a comparative scale on suitable dilutions of the samples (1:50 to 1:250 for the LTC4 determination and 1:250 to 1:1250 for the 6-keto-PGF1 α determination). To determine the inhibitory effect of a 10^-5 molar concentration of the compounds, the amount of reference eicosanoids was determined and the inhibitory effect was calculated from this in % inhibition compared to the measurements of the zymosan controls.
As a reminder, the inhibition is the drop in the measured response relative to a control, in per cent. `CCCCC1CCc2cccc3c(CCN4CCN(c5cc(C)ccn5)CC4)c(C)n1c23` (stereo not drawn) [Example 73, 4-n-butyl-5,6-dihydro-2-methyl-1-{2-[4-(4-methylpyridin-2-yl)piperazin-1-yl]ethyl}-4H-pyrrolo[3,2,1-ij]quinoline]: the inhibition at 10 µM was found to be 90%. Turning to `CCCCC1CCc2cc(O)cc3c(CCN4CCN(c5cc(C)ccn5)CC4)c(C)n1c23` (stereo not drawn) [Example 76], the inhibition at 10 µM was found to be 75%. As for `Cc1ccnc(N2CCN(CCc3c(C)n4c5c(cc(Cc6ccccc6)cc35)CCC4)CC2)c1` [Example 77], the inhibition at 10 µM worked out at 74%. Turning to `Cc1ccnc(N2CCN(CCc3c(C)n4c5c(c(Cl)cc(Cl)c35)OCC4)CC2)c1` [Example 79], the inhibition at 10 µM was found to be 71%.

For the compound `CNc1cc2c3c(c1)c(CCN1CCN(c4cc(C)ccn4)CC1)c(C)n3CCC2` [Example 80], the inhibition at 10 µM worked out at 39%. Take `Cc1ccnc(N2CCN(CCc3c(C)n4c5c(cc(N(C)C)cc35)CCC4)CC2)c1` [Example 81]: the inhibition at 10 µM turned out to be 29%. `Cc1ccnc(N2CCN(CCc3c(C)n4c5c(cc(C(=O)C6CCCCC6)cc35)CCC4)CC2)c1` [Example 83]: the inhibition at 10 µM was 34%. With `Cc1ccnc(N2CCN(CC(O)c3c(C4CCCCC4)n4c5c(cccc35)CCC4)CC2)c1` (stereo not drawn) [Example 85], the inhibition at 10 µM stood at 62%. Regarding `Cc1ccnc(N2CCN(CCc3c(C)n4c5c(cccc35)CCC4C3CCCCC3)CC2)c1` (stereo not drawn) [Example 87], the inhibition at 10 µM is 23%. Regarding `Cc1ccnc(N2CCN(CCc3c(C)n4c5c(c(C(O)C(C)C)ccc35)SCC4)CC2)c1` (stereo not drawn) [Example 89], the inhibition at 10 µM was 51%. Take `Cc1ccnc(N2CCN(CCc3c(C)n4c5c(ccc(C(O)C(C)C)c35)SCC4)CC2)c1` (stereo not drawn) [Example 90]: the inhibition at 10 µM was 66%. The same measure for `Cc1ccnc(N2CCN(CCc3c(C)n4c5c(ccc(C(=O)C(C)C)c35)SCC4)CC2)c1` [Example 91]: 81%.
